Target: T1, Muscarinic acetylcholine receptor M4 (Homo sapiens) (UniProt P08173)
T1 sequence (whole entry): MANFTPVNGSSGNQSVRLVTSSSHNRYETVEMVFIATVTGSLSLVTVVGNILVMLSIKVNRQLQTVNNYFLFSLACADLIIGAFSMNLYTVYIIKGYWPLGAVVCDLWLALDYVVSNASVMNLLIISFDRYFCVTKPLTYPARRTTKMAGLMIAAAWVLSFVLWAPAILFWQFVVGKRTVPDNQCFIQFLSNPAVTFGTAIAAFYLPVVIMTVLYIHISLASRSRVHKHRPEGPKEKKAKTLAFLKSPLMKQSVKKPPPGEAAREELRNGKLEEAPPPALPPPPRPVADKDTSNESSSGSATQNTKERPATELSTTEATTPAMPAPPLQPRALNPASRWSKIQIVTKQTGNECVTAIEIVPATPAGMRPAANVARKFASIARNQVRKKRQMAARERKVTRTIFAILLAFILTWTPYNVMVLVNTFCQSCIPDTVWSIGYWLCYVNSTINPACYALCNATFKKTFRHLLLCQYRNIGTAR
Test: Positive allosteric modulation of human muscarinic acetylcholine receptor M4 expressed in CHOK1 cells assessed as increase in acetylcholine-induced […] preincubated for 4 mins followed by acetylcholine addition measured for 3.5 mins by FLIPR assay
Type: functional, cell-based

| SMILES | IP |
| --- | --- |
| Cc1cc2c(nc1N1CCC(OC3CCOC3)CC1)CNC2=O (centres undefined) | 11.3 µM |
| Cc1cc2c(nc1N1CCC(Oc3cnc4[nH]nc(C)c4c3)CC1)CNC2=O | 6.07 µM |
| Cc1cc2c(nc1N1CCC(OC[C@@]3(C)C[C@H]3C#N)CC1)CNC2=O | 30 µM |
| COCCOC1CCN(c2nc3c(cc2C)C(=O)NC3)CC1 | 11.2 µM |
| COc1ccc(O[C@H]2CCN(c3nc4c(cc3C)C(=O)NC4)C[C@H]2C)cn1 | 30 µM |

More lines, now with the values ahead:

| IP | SMILES |
| --- | --- |
| 8.06 µM | COc1ccc(O[C@@H]2CCN(c3nc4c(cc3C)C(=O)N(C)[C@H]4CO)C[C@H]2F)cn1 |
| 240 µM | CCN1C(=O)c2c(nc(N3CCC(Oc4ccc5c(c4)COC5)CC3)c(C)c2C)[C@@H]1CO |
| 30 µM | Cc1cc2c(nc1N1CCC(Oc3ccc4c(n3)COC4)CC1)[C@H](CO)N(C)C2=O |
| 8.62 µM | CCOc1ccc(OC2CCN(c3nc4c(cc3C)C(=O)N(C)[C@H]4CO)CC2)cn1 |

From ChEMBL document CHEMBL4190355, “Allosteric Modulators of the M4 Muscarinic Acetylcholine Receptor” (ACS Med Chem Lett, 2017)
